From the supplement of paper PMC8671470

Experiments:
Conditions in all cases: 72 h
HEL [1] = system: HEL
Summary of the method: (§1)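 Fifteen myeloid leukaemia cell lines were seeded in RPMI 1640 at a density titrated to the linear growth range. Each line went into 384-well plates with compounds acoustically pre-printed at five tenfold doses from 1 to 10,000 nM, in duplicate, and was incubated for 72 h at 37 °C with 5% CO2. Luminescent ATP viability was normalised to vehicle and to a positive control at 10 µM. The IC50 came from four-parameter log-logistic dose–response fits.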

NOMO-1 [2] = system: NOMO-1
Summary of the method: as §1

MV4-11 [3] = system: MV4-11
Summary of the method: as §1

ML-2 [4] = system: ML-2
Summary of the method: as §1

SHI-1 [5] = system: SHI-1
Summary of the method: as §1

LAMA-84 [6] = system: LAMA-84
Summary of the method: as §1

K-562 [7] = system: K-562
Summary of the method: as §1

KG-1 [8] = system: KG-1
Summary of the method: as §1

KCL-22 [9] = system: KCL-22
Summary of the method: as §1

KU-812 [10] = system: KU-812
Summary of the method: as §1

MOLM-13 [11] = system: MOLM-13
Summary of the method: as §1

Mono-Mac-6 [12] = system: Mono-Mac-6
Summary of the method: as §1

THP-1 [13] = system: THP-1
Summary of the method: as §1

HL-60 [14] = system: HL-60
Summary of the method: as §1

BV-173 [15] = system: BV-173
Summary of the method: as §1

HEL [16] = experiment: cell viability (% survival relative to DMSO control, bortezomib = 0%); higher = less cytotoxic
Summary of the method: (§2)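 Percent survival is reported as the mean of duplicate wells. Cells from 10 AML and 5 CML lines were plated in 384-well plates containing compounds at 1, 10, 100, 1000 or 10000 nM and kept for 72 h at 37 °C in 5% CO2. Readout used CellTiter-Glo luminescence, scaled so that vehicle equals 100% and a 10 µM positive control equals 0%.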

NOMO-1 [17] = experiment: as above
Summary of the method: as §2

MV4-11 [18] = experiment: as above
Summary of the method: as §2

ML-2 [19] = experiment: as above
Summary of the method: as §2

SHI-1 [20] = experiment: as above
Summary of the method: as §2

LAMA-84 [21] = experiment: as above
Summary of the method: as §2

K-562 [22] = experiment: as above
Summary of the method: as §2

KG-1 [23] = experiment: as above
Summary of the method: as §2

KCL-22 [24] = experiment: as above
Summary of the method: as §2

KU-812 [25] = experiment: as above
Summary of the method: as §2

MOLM-13 [26] = experiment: as above
Summary of the method: as §2

Mono-Mac-6 [27] = experiment: as above
Summary of the method: as §2

THP-1 [28] = experiment: as above
Summary of the method: as §2

HL-60 [29] = experiment: as above
Summary of the method: as §2

BV-173 [30] = experiment: as above
Summary of the method: as §2

NS(=O)(=O)c1ccc(S(=O)(=O)Nc2cccc3c(Cl)c[nH]c23)cc1 [Indisulam]
Conditions | IC50 (cell viability) [nM]
BV-173 [15] | 856
HEL [1] | 7000
HL-60 [14] | 7320
K-562 [7] | 1430
KCL-22 [9] | 1080
KG-1 [8] | 932
KU-812 [10] | 540
LAMA-84 [6] | 918
ML-2 [4] | 703
MOLM-13 [11] | 619
MV4-11 [3] | 128
Mono-Mac-6 [12] | 796
NOMO-1 [2] | 1100
SHI-1 [5] | 1280
THP-1 [13] | > 10000

cell viability [%]
Conditions | 1 nM | 10 nM | 100 nM | 1000 nM | 10000 nM
BV-173 [30] | 108 | 87.3 | 110 | 46.6 | 9.34
HEL [16] | 103 | 98.1 | 95.8 | 95.9 | 34.7
HL-60 [29] | 107 | 107 | 85.8 | 97.2 | 37.1
K-562 [22] | 113 | 101 | 89.2 | 65.4 | 36.7
KCL-22 [24] | 102 | 104 | 87.4 | 58.6 | 19
KG-1 [23] | 139 | 129 | 173 | 50.5 | 15.5
KU-812 [25] | 102 | 99.1 | 108 | 29.9 | 13.7
LAMA-84 [21] | 94.3 | 89 | 111 | 55.2 | 21.9
ML-2 [19] | 99.1 | 104 | 97.9 | 35.2 | 3.51
MOLM-13 [26] | 122 | 102 | 97.8 | 32.6 | 7.24
MV4-11 [18] | 99.4 | 84.3 | 56.2 | 0.62 | 0.0378
Mono-Mac-6 [27] | 101 | 95.3 | 80.3 | 48.2 | 11.1
NOMO-1 [17] | 102 | 98.4 | 105 | 63.2 | 24.8
SHI-1 [20] | 96.8 | 101 | 97.4 | 65.2 | 26.8
THP-1 [28] | 103 | 94.5 | 112 | 94.3 | 71.1
